# Test results as given in ChEMBL document CHEMBL5154804, “Species-Selective Targeting of Fungal Hsp90: Design, Synthesis, and Evaluation of Novel 4,5-Diarylisoxazole Derivatives for the Combination Treatment of Azole-Resistant Candidiasis” (J Med Chem, 2022).
# What was measured:
# Assay type in all cases: functional
# Candida albicans [1] = assay: Synergistic antifungal activity against fluconazole-resistant Candida albicans 901 assessed as inhibition of fungal growth in presence of fluconazole by checker board microdilution assay
# Candida albicans [2] = assay: Synergistic antifungal activity against fluconazole-resistant Candida albicans 311 assessed as inhibition of fungal growth in presence of fluconazole by checker board microdilution assay; further: test concentration or dose not given here
# Candida albicans [3] = assay: Synergistic antifungal activity against fluconazole-resistant Candida albicans 103 assessed as inhibition of fungal growth in presence of fluconazole by checker board microdilution assay
# Candida albicans [4] = assay: Synergistic antifungal activity against fluconazole-resistant Candida albicans 632 assessed as inhibition of fungal growth in presence of fluconazole by checker board microdilution assay
# Candida albicans [5] = assay: Synergistic antifungal activity against fluconazole-resistant Candida albicans 904 assessed as inhibition of fungal growth in presence of fluconazole by checker board microdilution assay; further: test concentration or dose not given here
# Candida albicans [6] = assay: Synergistic antifungal activity against fluconazole-resistant Candida albicans 100 assessed as inhibition of fungal growth in presence of fluconazole by checker board microdilution assay
Compound,MIC80 (Candida albicans [1]) [µg/mL],MIC80 (Candida albicans [2]) [µg/mL],MIC80 (Candida albicans [3]) [µg/mL],MIC80 (Candida albicans [4]) [µg/mL],MIC80 (Candida albicans [5]) [µg/mL],MIC80 (Candida albicans [6]) [µg/mL]
Cc1ccc(-c2cc(-c3onc(C(=O)N(C)C)c3-c3ccc(CN4CCCCC4)cc3)c(O)cc2O)cc1,16,16,16,8,8,8
Cc1ccc(-c2cc(-c3onc(C(=O)N4CCCCC4)c3-c3ccc(CN4CCOCC4)cc3)c(O)cc2O)cc1,> 64,> 64,> 64,> 64,> 64,> 64
Cc1ccc(-c2cc(-c3onc(C(=O)NC4CCC4)c3-c3ccc(CN4CCOCC4)cc3)c(O)cc2O)cc1,8,> 64,32,64,4,16
CCNC(=O)c1noc(-c2cc(-c3cccc(OC(F)(F)F)c3)c(O)cc2O)c1-c1ccc(CN2CCOCC2)cc1,> 64,> 64,> 64,> 64,> 64,> 64
CCNC(=O)c1noc(-c2cc(-c3ccc(F)cc3)c(O)cc2O)c1-c1ccc(CN2CCOCC2)cc1,2,16,16,4,1,16
CCNC(=O)c1noc(-c2cc(-c3ccccc3Cl)c(O)cc2O)c1-c1ccc(CN2CCOCC2)cc1,> 64,> 64,> 64,> 64,> 64,> 64
Cc1ccc(-c2cc(-c3onc(C(=O)N(C)C)c3-c3ccc(CN4CCOCC4)cc3)c(O)cc2O)cc1,4,32,16,8,8,32
CCNC(=O)c1noc(-c2cc(-c3ccc(C)cc3)c(O)cc2O)c1-c1ccc(CN2CCSCC2)cc1,0.5,2,1,0.5,8,2
CCNC(=O)c1noc(-c2cc(-c3ccc(C(F)(F)F)cc3)c(O)cc2O)c1-c1ccc(CN2CCOCC2)cc1,> 64,> 64,> 64,> 64,> 64,> 64
CCN(CC)C(=O)c1noc(-c2cc(-c3ccc(C)cc3)c(O)cc2O)c1-c1ccc(CN2CCOCC2)cc1,8,8,16,8,8,8
CCNC(=O)c1noc(-c2cc(-c3ccc(C)cc3)c(O)cc2O)c1-c1ccc(CN2CCCC2)cc1,1,4,4,4,2,2
CCNC(=O)c1noc(-c2cc(-c3ccc(C)cc3)c(O)cc2O)c1-c1ccc(CN2CCS(=O)(=O)CC2)cc1,64,16,> 64,> 64,32,> 64
CCNC(=O)c1noc(-c2cc(-c3ccc(C)cc3)c(O)cc2O)c1-c1ccc(CNC2CCCC2)cc1,> 64,> 64,> 64,> 64,> 64,> 64
CCNC(=O)c1noc(-c2cc(-c3ccc(C)cc3)c(O)cc2O)c1-c1ccc(CNC2CCN(C)CC2)cc1,16,64,16,8,64,64
CCNC(=O)c1noc(-c2cc(-c3ccc(OC)cc3)c(O)cc2O)c1-c1ccc(CN2CCOCC2)cc1,8,16,8,16,4,8
CCNC(=O)c1noc(-c2cc(-c3ccc(C)cc3)c(O)cc2O)c1-c1ccc(CN2CCC(N(C)C)CC2)cc1,16,2,4,64,4,64
CCNC(=O)c1noc(-c2cc(-c3ccc(C)cc3)c(O)cc2O)c1-c1ccc(CN2CCC(N3CCOCC3)CC2)cc1,> 64,> 64,> 64,> 64,> 64,> 64
CCNC(=O)c1noc(-c2cc(-c3cccc(C(F)(F)F)c3)c(O)cc2O)c1-c1ccc(CN2CCOCC2)cc1,> 64,> 64,> 64,> 64,> 64,> 64
Cc1ccc(-c2cc(-c3onc(C(=O)NC(C)C)c3-c3ccc(CN4CCOCC4)cc3)c(O)cc2O)cc1,8,64,64,8,4,16
CCN(CC)C(=O)c1noc(-c2cc(-c3ccc(C)cc3)c(O)cc2O)c1-c1ccc(CN2CCCCC2)cc1,4,4,2,4,8,4
CCCNC(=O)c1noc(-c2cc(-c3ccc(C)cc3)c(O)cc2O)c1-c1ccc(CN2CCOCC2)cc1,4,64,32,32,4,16
CCNC(=O)c1noc(-c2cc(-c3ccc(CC)cc3)c(O)cc2O)c1-c1ccc(CN2CCOCC2)cc1,0.5,1,2,2,0.5,4
CCNC(=O)c1noc(-c2cc(-c3ccccc3CC)c(O)cc2O)c1-c1ccc(CN2CCOCC2)cc1,> 64,> 64,> 64,> 64,> 64,> 64
Cc1ccc(-c2cc(-c3onc(C(=O)NC4CC4)c3-c3ccc(CN4CCOCC4)cc3)c(O)cc2O)cc1,8,> 64,16,32,4,4
Cc1ccc(-c2cc(-c3onc(C(=O)NC4COC4)c3-c3ccc(CN4CCCCC4)cc3)c(O)cc2O)cc1,32,> 64,> 64,> 64,> 64,> 64
CCNC(=O)c1noc(-c2cc(-c3ccc(C)cc3)c(O)cc2O)c1-c1ccc(CN2CCNC(=O)C2)cc1,> 64,> 64,> 64,> 64,> 64,> 64
CCNC(=O)c1noc(-c2cc(-c3ccc(Cl)cc3)c(O)cc2O)c1-c1ccc(CN2CCOCC2)cc1,0.5,16,8,8,0.5,4
Cc1ccc(-c2cc(-c3onc(C(=O)NC(C)C)c3-c3ccc(CN4CCCCC4)cc3)c(O)cc2O)cc1,4,8,4,2,2,8
CCNC(=O)c1noc(-c2cc(-c3cccc(C)c3)c(O)cc2O)c1-c1ccc(CN2CCOCC2)cc1,0.5,0.5,1,0.25,0.25,1
